# The source made the active and inactive calls. The rule behind the calls is not given here. Starred links: 1 amine or outer side, 2 acyl side, 3 side chain; linkers in the order of their positions; H or OH if unused. Positions of bridges follow the written chain, without caps; N, C: chain ends. Non-standard residues stand in square brackets, D forms with d. Residues, ends and D or L forms follow the SMILES beside them. Chains are numbered I, II in the order given. *: point of attachment. X2 = CC[C@H](C)[C@@H]([C@@H](CC(=O)N1CCC[C@H]1[C@H](OC)[C@@H](C)C(=O)N[C@H](C)[C@H](O)c1ccccc1)OC)N(C)[C@H](C(=O)NC(=O)[C@H](C(C)C)N(C)C(=O)OCc1ccc(NC(=O)[C@H](CCCNC(N)=O)NC(=O)[C@@H](NC(=O)CCCCCN2C(=O)CC(*)C2=O)C(C)C)cc1)C(C)C; Hexanoyl(6-succinimido-3yl) = O=C1CC([*:1])C(=O)N1CCCCCC(=O)[*:2]; Dolaproine = CO[C@@H]([C@@H]1CCCN1)[C@@H](C)C(=O)O; Dil = CC[C@H](C)[C@H](NC)[C@@H](CC(=O)O)OC; PABC = O=C(OCc1ccc(N[*:1])cc1)[*:2]; X1 = C[C@@H](N*)[C@@H](O)c1ccccc1; Cit = NC(=O)NCCC[C@H](N)C(=O)O; NMeV = CN[C@H](C(=O)O)C(C)C
# How the values were obtained:
# [1] = biological target: Glypican-3 (Homo sapiens) (UniProt P51654); test: Binding affinity to GPC3 in human LX-2 cells assessed as increase in fluorescence (red color) measured after 4 hrs incubation by immunofluorescence staining based assay; type: cell-based
# [2] = biological target: Glypican-3 (Homo sapiens) (UniProt P51654); test: Binding affinity to GPC3 in human Hep3B cells assessed as increase in fluorescence (red color) by immunofluorescence staining based assay; type: cell-based
# [3] = biological target: Glypican-3 (Homo sapiens) (UniProt P51654); test: Binding affinity to GPC3 in human HeLa cells assessed as increase in fluorescence (red color) measured after 4 hrs incubation by immunofluorescence staining based assay; type: cell-based
# [4] = Drug uptake in human Huh-7 cells assessed as red fluorescence in inside the cells measured after 30 mins by live cell confocal imaging analysis; type: ADME, cell-based; details: huh-7, 0.5 h
# [5] = Drug uptake in human Huh-7 cells assessed as green fluorescence in lysosomes measured after 30 mins co-staining with lysotracker by live cell confocal imaging analysis; type: ADME, cell-based; details: huh-7, 0.5 h
# Hep 3B2 = test: Antiproliferative activity against GPC3-positive human Hep3B cells assessed as cytotoxicity measured after 72 hrs by MTT assay; type: functional, cell-based
# Huh-7 = test: Antiproliferative activity against GPC3-positive human Huh-7 cells assessed as cytotoxicity measured after 72 hrs by MTT assay; type: functional, cell-based; details: Huh-7, 72 h
# HeLa = test: Antiproliferative activity against GPC3-negative human HeLa cells assessed as cytotoxicity measured after 72 hrs by MTT assay; type: functional, cell-based
# LX-2 = test: Antiproliferative activity against GPC3-negative human LX-2 cells assessed as cytotoxicity measured after 72 hrs by MTT assay; type: functional, cell-based; details: LX-2, 72 h
# [6] = biological target: Glypican-3 (Homo sapiens) (UniProt P51654); test: Binding affinity to GPC3 in human Huh-7 cells assessed as increase in fluorescence (red color) by immunofluorescence staining based assay; type: cell-based
# Glypican-3 (Homo sapiens), sequence (P51654 25-358 limits assumed): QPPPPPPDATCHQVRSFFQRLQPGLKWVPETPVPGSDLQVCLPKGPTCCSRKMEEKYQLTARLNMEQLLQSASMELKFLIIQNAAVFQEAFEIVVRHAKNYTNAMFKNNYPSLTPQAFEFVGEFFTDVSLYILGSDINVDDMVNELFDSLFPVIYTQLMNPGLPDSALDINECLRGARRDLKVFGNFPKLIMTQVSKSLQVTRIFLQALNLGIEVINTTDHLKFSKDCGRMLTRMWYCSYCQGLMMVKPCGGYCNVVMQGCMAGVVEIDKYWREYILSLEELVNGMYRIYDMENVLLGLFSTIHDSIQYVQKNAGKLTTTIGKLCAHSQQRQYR
# Glypican-3 (Homo sapiens), sequence (P51654 359-554 limits assumed): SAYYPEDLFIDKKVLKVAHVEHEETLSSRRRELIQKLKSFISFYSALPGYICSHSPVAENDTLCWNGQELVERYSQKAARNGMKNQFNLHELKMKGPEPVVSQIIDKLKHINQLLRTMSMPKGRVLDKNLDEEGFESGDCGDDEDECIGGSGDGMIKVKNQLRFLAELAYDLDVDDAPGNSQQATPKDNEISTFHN
Activity [1],Activity [2],Activity [3],Drug uptake [4],Drug uptake [5],Activity [6],Structure (SMILES),IC50 (Hep 3B2) [nM],IC50 (Huh-7) [nM],IC50 (HeLa) [nM],IC50 (LX-2) [nM]
Active,Active; Compound Showed Minimal Binding,Active; Compound Showed Minimal Binding,,,,CC[C@H](C)[C@@H]([C@@H](CC(=O)N1CCC[C@H]1[C@H](OC)[C@@H](C)C(=O)N[C@H](C)[C@@H](O)c1ccccc1)OC)N(C)C(=O)[C@@H](NC(=O)[C@H](C(C)C)N(C)C(=O)OCc1ccc(NC(=O)[C@H](CCCNC(N)=O)NC(=O)[C@H](NC(=O)CCCCCN2C(=O)CC(SC[C@H](NC(=O)CCCCC[N+]3=C(/C=C/C=C/C=C4\N(C)c5ccc6ccccc6c5C4(C)C)C(C)(C)c4c3ccc3ccccc43)C(=O)N[C@@H](CC(=O)O)C(=O)N[C@@H](Cc3ccc(O)cc3)C(=O)N[C@@H](CCC(=O)O)C(=O)N[C@@H](CCSC)C(=O)N[C@@H](Cc3cnc[nH]3)C(=O)N[C@@H](CC(C)C)C(=O)N[C@@H](Cc3c[nH]c4ccccc34)C(=O)N[C@@H](Cc3c[nH]c4ccccc34)C(=O)NCC(=O)N[C@H](C(=O)N[C@@H](CCC(=O)O)C(=O)N[C@@H](CC(C)C)C(N)=O)[C@H](C)O)C2=O)C(C)C)cc1)C(C)C (some centres not stated),,,,
,,,Active,Active,,CC[C@H](C)[C@@H]([C@@H](CC(=O)N1CCC[C@H]1[C@H](OC)[C@@H](C)C(=O)N[C@H](C)[C@@H](O)c1ccccc1)OC)N(C)C(=O)[C@@H](NC(=O)[C@H](C(C)C)N(C)C(=O)OCc1ccc(NC(=O)[C@H](CCCNC(N)=O)NC(=O)[C@@H](NC(=O)CCCCCN2C(=O)CC(SC[C@H](NC(=O)CCCCC[N+]3=C(/C=C/C=C/C=C4\N(C)c5ccc6ccccc6c5C4(C)C)C(C)(C)c4c3ccc3ccccc43)C(=O)N[C@@H](CO)C(=O)N[C@@H](CC(N)=O)C(=O)N[C@@H](CC(=O)O)C(=O)N[C@@H](CCCNC(=N)N)C(=O)N3CCC[C@H]3C(=O)N3CCC[C@H]3C(=O)N[C@@H](CC(N)=O)C(=O)N[C@H](C(=O)N[C@@H](CC(C)C)C(=O)N[C@@H](CCC(N)=O)C(=O)N[C@@H](CCCCN)C(=O)N[C@@H](CCCNC(=N)N)C(N)=O)[C@@H](C)CC)C2=O)C(C)C)cc1)C(C)C (some centres not stated),,,,
,,,,,,CC[C@H](C)[C@@H]([C@@H](CC(=O)N1CCC[C@H]1[C@H](OC)[C@@H](C)C(=O)N[C@H](C)[C@@H](O)c1ccccc1)OC)N(C)C(=O)[C@@H](NC(=O)[C@H](C(C)C)N(C)C(=O)OCc1ccc(NC(=O)[C@H](CCCNC(N)=O)NC(=O)[C@@H](NC(=O)CCCCCN2C(=O)CC(SC[C@H](N)C(=O)N[C@@H](CCCNC(=N)N)C(=O)N[C@@H](CC(C)C)C(=O)N[C@@H](CC(N)=O)C(=O)N[C@H](C(=O)NCC(=O)NCC(=O)N[C@H](C(=O)N[C@@H](Cc3ccc(O)cc3)C(=O)N[C@@H](Cc3ccccc3)C(=O)N[C@@H](CC(C)C)C(=O)N[C@H](C(=O)N[C@H](C(=O)N[C@@H](CCCNC(=N)N)C(=O)N[C@@H](CCC(N)=O)C(N)=O)[C@@H](C)O)[C@@H](C)O)[C@@H](C)O)C(C)C)C2=O)C(C)C)cc1)C(C)C (some centres not stated) (I: H-CRLNVGGTYFLTTRQ-NH2 / II: V[Cit][PABC][NMeV]V[Dil][Dolaproine]-X1; linker I:1-II:N via Hexanoyl(6-succinimido-3yl)),81.2,67.9,70.4,30.8
,,,,,,CC[C@H](C)[C@@H]([C@@H](CC(=O)N1CCC[C@H]1[C@H](OC)[C@@H](C)C(=O)N[C@H](C)[C@H](O)c1ccccc1)OC)N(C)[C@H](C(=O)NC(=O)[C@H](C(C)C)N(C)C(=O)OCc1ccc(NC(=O)[C@H](CCCNC(N)=O)NC(=O)[C@@H](NC(=O)CCCCCN2C(=O)CC(SC[C@H](N)C(=O)N[C@H](C(=O)N[C@@H](Cc3cnc[nH]3)C(=O)N[C@H](C(=O)N[C@@H](CO)C(=O)N3CCC[C@H]3C(=O)N[C@@H](CC(N)=O)C(=O)N[C@@H](CCC(N)=O)C(=O)NCC(=O)NCC(=O)N[C@@H](CC(C)C)C(=O)N3CCC[C@H]3C(=O)N[C@@H](CO)C(=O)O)C(C)C)[C@@H](C)O)C2=O)C(C)C)cc1)C(C)C (some centres not stated) (H-C(X2)THVSPNQGGLPS-OH),> 100,40,> 100,48.9
,,,,,,CC[C@H](C)[C@@H]([C@@H](CC(=O)N1CCC[C@H]1[C@H](OC)[C@@H](C)C(=O)N[C@H](C)[C@@H](O)c1ccccc1)OC)N(C)C(=O)[C@@H](NC(=O)[C@H](C(C)C)N(C)C(=O)OCc1ccc(NC(=O)[C@H](CCCNC(N)=O)NC(=O)[C@@H](NC(=O)CCCCCN2C(=O)CC(SC[C@H](N)C(=O)N[C@@H](C)C(=O)N[C@@H](CC(C)C)C(=O)N[C@@H](CC(C)C)C(=O)N[C@@H](C)C(=O)N[C@@H](CC(N)=O)C(=O)N[C@@H](Cc3cnc[nH]3)C(=O)N[C@@H](CCC(=O)O)C(=O)N[C@@H](CCC(=O)O)C(=O)N[C@@H](CC(C)C)C(=O)N[C@@H](Cc3ccccc3)C(=O)N[C@@H](CCC(N)=O)C(=O)N[C@H](C(N)=O)[C@@H](C)O)C2=O)C(C)C)cc1)C(C)C (some centres not stated) (I: H-CALLANHEELFQT-NH2 / II: V[Cit][PABC][NMeV]V[Dil][Dolaproine]-X1; linker I:1-II:N via Hexanoyl(6-succinimido-3yl)),> 100,81.4,> 100,> 100
,,,,,,CC[C@H](C)[C@@H]([C@@H](CC(=O)N1CCC[C@H]1[C@H](OC)[C@@H](C)C(=O)N[C@H](C)[C@@H](O)c1ccccc1)OC)N(C)C(=O)[C@@H](NC(=O)[C@@H](NC)C(C)C)C(C)C (H-[NMeV]V[Dil][Dolaproine]-X1),8.63,1.05,1.47,0.46
Active,Active,Active,,,Active,CC[C@H](C)[C@@H]([C@@H](CC(=O)N1CCC[C@H]1[C@H](OC)[C@@H](C)C(=O)N[C@H](C)[C@@H](O)c1ccccc1)OC)N(C)C(=O)[C@@H](NC(=O)[C@H](C(C)C)N(C)C(=O)OCc1ccc(NC(=O)[C@H](CCCNC(N)=O)NC(=O)[C@@H](NC(=O)CCCCCN2C(=O)CC(SC[C@H](NC(=O)CCCCC[N+]3=C(/C=C/C=C/C=C4\N(C)c5ccc6ccccc6c5C4(C)C)C(C)(C)c4c3ccc3ccccc43)C(=O)N[C@@H](CO)C(=O)N[C@@H](CC(N)=O)C(=O)N[C@@H](CC(=O)O)C(=O)N[C@@H](CCCNC(=N)N)C(=O)N3CCC[C@@H]3C(=O)N3CCC[C@@H]3C(=O)N[C@@H](CC(N)=O)C(=O)N[C@H](C(=O)N[C@@H](CC(C)C)C(=O)N[C@@H](CCC(N)=O)C(=O)N[C@@H](CCCCN)C(=O)N[C@@H](CCCNC(=N)N)C(N)=O)[C@@H](C)CC)C2=O)C(C)C)cc1)C(C)C (some centres not stated),,,,
,,,,,,CC[C@H](C)[C@@H]([C@@H](CC(=O)N1CCC[C@H]1[C@H](OC)[C@@H](C)C(=O)N[C@H](C)[C@@H](O)c1ccccc1)OC)N(C)C(=O)[C@@H](NC(=O)[C@H](C(C)C)N(C)C(=O)OCc1ccc(NC(=O)[C@H](CCCNC(N)=O)NC(=O)[C@@H](NC(=O)CCCCCN2C(=O)CC(SC[C@H](N)C(=O)N[C@@H](CC(=O)O)C(=O)N[C@@H](Cc3cnc[nH]3)C(=O)N[C@@H](CC(C)C)C(=O)N[C@@H](C)C(=O)N[C@@H](CO)C(=O)N[C@@H](CC(C)C)C(=O)N[C@@H](Cc3c[nH]c4ccccc34)C(=O)N[C@@H](Cc3c[nH]c4ccccc34)C(=O)NCC(=O)N[C@H](C(=O)N[C@@H](CCC(=O)O)C(=O)N[C@@H](CC(C)C)C(N)=O)[C@@H](C)O)C2=O)C(C)C)cc1)C(C)C (some centres not stated) (I: H-CDHLASLWWGTEL-NH2 / II: V[Cit][PABC][NMeV]V[Dil][Dolaproine]-X1; linker I:1-II:N via Hexanoyl(6-succinimido-3yl)),> 100,> 100,> 100,> 100
,,,,,,CC[C@H](C)[C@@H]([C@@H](CC(=O)N1CCC[C@H]1[C@H](OC)[C@@H](C)C(=O)N[C@H](C)[C@@H](O)c1ccccc1)OC)N(C)C(=O)[C@@H](NC(=O)[C@H](C(C)C)N(C)C(=O)OCc1ccc(NC(=O)[C@H](CCCNC(N)=O)NC(=O)[C@@H](NC(=O)CCCCCN2C(=O)CC(SC[C@H](N)C(=O)N[C@@H](CC(=O)O)C(=O)N[C@@H](Cc3ccc(O)cc3)C(=O)N[C@@H](CCC(=O)O)C(=O)N[C@@H](CCSC)C(=O)N[C@@H](Cc3cnc[nH]3)C(=O)N[C@@H](CC(C)C)C(=O)N[C@@H](Cc3c[nH]c4ccccc34)C(=O)N[C@@H](Cc3c[nH]c4ccccc34)C(=O)NCC(=O)N[C@H](C(=O)N[C@@H](CCC(=O)O)C(=O)N[C@@H](CC(C)C)C(N)=O)[C@@H](C)O)C2=O)C(C)C)cc1)C(C)C (some centres not stated) (I: H-CDYEMHLWWGTEL-NH2 / II: V[Cit][PABC][NMeV]V[Dil][Dolaproine]-X1; linker I:1-II:N via Hexanoyl(6-succinimido-3yl)),> 100,41.5,> 100,58.1
,,,,,,CC[C@H](C)[C@@H]([C@@H](CC(=O)N1CCC[C@H]1[C@H](OC)[C@@H](C)C(=O)N[C@H](C)[C@@H](O)c1ccccc1)OC)N(C)C(=O)[C@@H](NC(=O)[C@H](C(C)C)N(C)C(=O)OCc1ccc(NC(=O)[C@H](CCCNC(N)=O)NC(=O)[C@@H](NC(=O)CCCCCN2C(=O)CC(SC[C@H](N)C(=O)N[C@@H](Cc3ccc(O)cc3)C(=O)N[C@@H](Cc3ccccc3)C(=O)N[C@@H](CC(C)C)C(=O)N[C@H](C(=O)N[C@H](C(=O)N[C@@H](CCCNC(=N)N)C(=O)N[C@@H](CCC(N)=O)C(N)=O)[C@@H](C)O)[C@@H](C)O)C2=O)C(C)C)cc1)C(C)C (some centres not stated) (I: H-CYFLTTRQ-NH2 / II: V[Cit][PABC][NMeV]V[Dil][Dolaproine]-X1; linker I:1-II:N via Hexanoyl(6-succinimido-3yl)),> 100,30.9,> 100,> 100

# — ChEMBL document CHEMBL6182945, “MMAE-Based Peptide-Drug Conjugates Targeting GPC3 for Precision Chemoradiotherapy in Hepatocellular Carcinoma” (J Med Chem, 2025)
